Experimental data reported in patent publication US20260227397A1, “METHODS AND SYSTEMS OF PROFILING WITH BIOLOGICAL COMPUTING CELLS” (XENO CELL INNOVATIONS S.R.O., priority 2023, published 2026).

T1: alpha-factor, P01149
T1 chain: WHWLQLKPGQPMY


How the values were obtained:
[1] = test system: HaCaT (HCT, EpCAM+) cells; assay: Cell-specific apoptosis rate in mixed HaCaT/Jurkat cell cultures (biocytometry readout); assay type: cell-based
Experimental: The presently described biocytometry was evaluated for measuring cell-specific apoptosis in mixed cell cultures. Despite the growing trend toward studying apoptosis in complex biological systems such as organoids and mixed cell cultures, conventional methods such as Caspase-based assays and MTT tests still yield limited sensitivity and quantify only aggregate apoptosis levels. To assess cell-specific apoptosis, mixed cultures of HaCaT (HCT, EpCAM+) and Jurkat (JUR, EpCAM−) cells at varied ratios (1:0 to 1:8) were utilized. Cells were cultured at a density of 40,000 cells/well in RPMI medium supplemented with 10% FBS and either subjected to 1 mM DTT treatment or left untreated. Following a 2.5-hour incubation at 37° C. in a 5% CO2 atmosphere, both total and apoptotic HaCaT cell counts were established using BIOS(EpCAM) and BIOS (EpCAM+PS), adhering to the biocytometry protocol. A noticeable reduction in total EpCAM+ cell count was evident in induced cell cultures, alongside an increase in the number of apoptotic EpCAM+ cells, aligning with the anticipated apoptotic changes (FIG. 12A). Apoptotic rates were calculated by normalizing BIOS(EpCAM+PS) counts to total cell counts from BIOS(EpCAM). […]

alpha-factor, P01149 = molecular target: T1, alpha-factor, P01149

| Molecule | increase in apoptotic rates among EpCAM+ cells ([1]; 1 mM DTT vs untreated controls) | apoptotic rate among EpCAM+ cells ([1]; 1 mM DTT, 2.5-hour incubation at 37° C., 1.7% baseline in untreated controls) | degradation of alpha-factor; activation threshold of the biosensors (alpha-factor, P01149) |
| --- | --- | --- | --- |
| O[C@@H](CS)[C@@H](O)CS [DTT] | 7.2 fold | 12.2% | – |
| BAR1 protease of BAR1 computing units (protein) LTNDGTGHLEFLLQHEEEMYYATTLDIGTPSQSLTVLFDTGSADFWVMDSSNPFCLPNSNTSSYSNATYNGEEVKPSIDCRSMSTYNEHRSSTYQYLENGRFYITYADGTFADGSWGTETVSINGIDIPNIQFGVAKYATTPVSGVLGIGFPRRESVKGYEGAPNEYYPNFPQILKSEKIIDVVAYSLFLNSPDSGTGSIVFGAIDESKFSGDLFTFPMVNEYPTIVDAPATLAMTIQGLGAQNKSSCEHETFTTTKYPVLLDSGTSLLNAPKVIADKMASFVNASYSEEEGIYILDCPVSVGDVEYNFDFGDLQISVPLSSLILSPETEGSYCGFAVQPTNDSMVLGDVFLSSAYVVFDLDNYKISLAQANWNASEVSKKLVNIQTDGSISGAKIATAEPWSTNEPFTVTSDIYSSTGCKSRPFLQSSTASSLIAETNVQSRNCSTKMPGTRSTTVLSKPTQNSAMHQSTGAVTQTSNETKLELSSTMANSGSVSLPTSNSIDKEFEHSKSQTTSDPSVAEHSTFNQTFVHETKYRPTHKTVITETVTKYSTVLINVCKPTY | – | – | effectively degraded alpha-factor, raising the activation threshold of the biosensors |
